Measurements taken from patent publication US20230339874A1, “PIPERAZINYL COMPOUNDS AND METHODS FOR TREATING NEMATODE INFECTIONS” (The Governing Council of the University of Toronto, priority 2020, published 2023).
pEC50, pKi: −log10 of the molar value. Read-outs that look alike come from different tables or passages of the source.

What was measured:
[1] = tested on: D. immitis larval stage 3 (L3) worms; experiment: D. immitis L3 development assay; assay type: in vivo; settings: 72 h, read-out: D. immitis L3 development EC50 (μM)
Strongyloides ratti L3 = assay type: in vivo; settings: 72 h incubation, 1 replicate
[2] = tested on: Heligmosomoides polygyrus larval stage 3 (L3) worms; assay type: in vivo; settings: 72 h incubation, one replicate
rat VAChT = target: T1, rat VAChT (Rattus norvegicus, UniProt Q62666); experiment: Competition binding, displacement of [3H]vesamicol from rat VAChT
T1 sequence (Q62666 1-530): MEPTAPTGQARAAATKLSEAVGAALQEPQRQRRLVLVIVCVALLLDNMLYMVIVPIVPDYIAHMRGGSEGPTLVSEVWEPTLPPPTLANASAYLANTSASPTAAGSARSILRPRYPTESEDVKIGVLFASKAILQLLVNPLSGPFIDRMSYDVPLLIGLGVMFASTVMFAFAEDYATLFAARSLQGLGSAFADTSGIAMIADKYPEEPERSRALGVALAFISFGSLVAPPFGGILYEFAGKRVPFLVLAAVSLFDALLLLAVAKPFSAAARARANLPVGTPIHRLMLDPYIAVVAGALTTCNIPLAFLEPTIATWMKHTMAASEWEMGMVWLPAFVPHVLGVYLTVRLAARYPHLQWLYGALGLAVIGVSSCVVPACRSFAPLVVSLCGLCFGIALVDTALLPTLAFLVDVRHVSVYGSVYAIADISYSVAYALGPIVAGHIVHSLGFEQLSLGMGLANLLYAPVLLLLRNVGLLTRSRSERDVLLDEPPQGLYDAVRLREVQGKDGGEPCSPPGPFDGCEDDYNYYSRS

[3] = tested on: Danio rerio (zebrafish) embryos; experiment: Danio rerio (zebrafish) embryo abnormal developmental phenotype; assay type: in vivo; settings: for EC50: read-out: D. rerio (zebrafish) any phenotype EC50 (μM)
C. elegans L3 larvae = C. elegans L3 larvae abnormal locomotory behaviour on solid agar; settings: solid agar MYOB + E. coli OP50, mean of 4 replicates; for % C. elegans L3 larvae any phene 1 h (conc.): 1 h exposure; for % C. elegans L3 larvae any phene 6 h (conc.): 6 h exposure; for % C. elegans L3 larvae any phene 24 h (conc.): 24 h exposure
Procedure: 20 animals were scored after either 1, 6 or 24 hours of exposure to drug (as indicated) per replicate. […] Data are reported as the mean % of animals with abnormal phenotype over 4 independent replicates.

[4] = tested on: Pristionchus pacificus young adult animals; experiment: Pristionchus pacificus young adult abnormal locomotory behaviour on solid agar; assay type: in vivo; settings: read-out: P. pacificus, young adult 1 h any phene at 1 h (EC50 (μM))
D. immitis microfilariae = D. immitis microfilariae immobility assay; assay type: in vivo; settings: 72 h, read-out: D. immitis microfilariae immobility EC50 (μM)
[5] = displacement of [3H]vesamicol, rat VAChT expressed in P12 cells, read-out: ratVAChT Ki

SMILES	EC50 [1]	S. ratti L3 % lethality 25 μM (Strongyloides ratti L3)	H. Polygyrus % lethality L3 25 μM [2]	pKi (rat VAChT; [5])	EC50 [3]	% C. elegans L3 larvae any phene 1 h (conc.) (C. elegans L3 larvae; 3.75 uM)	% C. elegans L3 larvae any phene 6 h (conc.) (C. elegans L3 larvae; 3.75 uM)	% C. elegans L3 larvae any phene 24 h (conc.) (C. elegans L3 larvae; 3.75 uM)	% C. elegans L3 larvae any phene 1 h (conc.) (C. elegans L3 larvae; 15 uM)	% C. elegans L3 larvae any phene 6 h (conc.) (C. elegans L3 larvae; 15 uM)	% C. elegans L3 larvae any phene 24 h (conc.) (C. elegans L3 larvae; 15 uM)	% C. elegans L3 larvae any phene 1 h (conc.) (C. elegans L3 larvae; 60 uM)	% C. elegans L3 larvae any phene 6 h (conc.) (C. elegans L3 larvae; 60 uM)	% C. elegans L3 larvae any phene 24 h (conc.) (C. elegans L3 larvae; 60 uM)	EC50 ([4]; 1 h)	pKi (rat VAChT)	EC50 ([4]; 1 h exposure, tested at 3.75, 15 and 60 μM, NA = not active, no phenotype at 60 μM)	pEC50 ([3]; 1 day post fertilization embryos through 48 h of development, tested at 15 and 3.75 μM, select compounds at 60 and 30 μM, read-out: D. rerio (zebrafish) any phenotype EC50)	EC50 (D. immitis microfilariae)
Cc1ccc(N2CCN(C3CCC(C)C3)CC2)cc1 (stereo not shown) [VI-a]	> 50 µM	28.1%	31.6%	6.39	> 15 µM	58.3%	1.7%	0.0%	98.3%	74.2%	20.0%	100.0%	100.0%	100.0%	–	–	–	–	–
O[C@@H]1CCCC[C@H]1N1CCC(c2ccccc2)CC1 (racemic) [vesamicol, reference compound]	–	17.3%	0%	–	21.1 µM	0.0%	0.0%	0.0%	0.0%	0.8%	0.0%	11.7%	1.7%	0.0%	> 60 µM	7.52	–	–	–
FC(F)(F)c1cccc(N2CCN(CC3CCCC3)CC2)c1 [VI-k]	–	0%	34.1%	5.18	> 60 µM	18.3%	0.8%	0.0%	94.2%	30.8%	8.3%	95.0%	70.0%	80.8%	> 60 µM	–	–	–	–
Cc1ccc(N2CCN(CC3CC=CCC3)CC2)cc1 (stereo not shown) [VI-e]	–	31.6%	0%	6.68	32.5 µM	36.7%	5.8%	0.0%	96.7%	46.7%	5.0%	100.0%	100.0%	99.2%	5.7 µM	–	–	–	–
O=C(C1CCCCC1)N1CCN(c2ccc([N+](=O)[O-])cc2)CC1 [III-a]	> 50 µM	–	–	–	–	0.8%	0.8%	0.0%	0.8%	5.8%	0.0%	4.2%	24.2%	0.0%	–	–	> 60 µM	< 4.82	–
Cc1ccc(N2CCN(CC3CC4C=CC3C4)CC2)cc1 (stereo not shown) [VI-c]	> 50 µM	0%	7.6%	6.80	16.9 µM	33.8%	7.5%	0.0%	100.0%	64.2%	10.0%	100.0%	84.2%	100.0%	–	–	–	–	–
Cc1cc([N+](=O)[O-])ccc1N1CCN(CC2CCCCC2)CC1 [V-a]	15 µM	–	–	–	5.1 µM	15.8%	0.0%	0.0%	33.3%	15.8%	0.0%	63.3%	27.5%	0.0%	> 60 µM	–	–	–	–
FC(F)(F)c1cccc(N2CCN(C3CCCCCCC3)CC2)c1 [VI-i]	> 50 µM	0%	11.2%	–	4 µM	26.7%	0.0%	0.0%	70.0%	0.0%	0.0%	96.7%	58.3%	5.0%	49.6 µM	–	–	–	–
Cc1cc(N2CCN(CC3CCCCC3)CC2)ccc1[N+](=O)[O-] [V-b]	14 µM	–	–	–	5.1 µM	2.5%	0.0%	0.0%	20.8%	3.3%	0.0%	62.5%	41.7%	9.2%	> 60 µM	–	–	–	5.1 µM
